In patent US10899764B2, “Imidazo isoindole derivative, preparation method therefor and medical use thereof” (Jiangsu Hengrui Medicine Co., Ltd., priority 2015, dated 2021):
Where a name gives a salt, the structure may show the parent alone.

Legend:
[1] = Pharmacokinetics assay in SD rats after intragastrical administration; assay type: in vivo; conditions: both sexes, Sprague-Dawley, rat, plasma, po, intragastric, 10 mg/kg
Description: Sprague-Dawley (SD) rats were used as test animals. […] The pharmacokinetic behavior of the compounds of the present invention was studied and evaluated in rats.
Eight (8) healthy adult SD rats, half male and half female, were purchased from SINO-BRITSH SIPPR/BK LAB. […]
The samples were stored in heparinized test tubes, and centrifuged for 10 minutes at 3,500 rpm to separate blood plasma. The plasma samples were stored at −20° C. The rats were fed 2 hours after administration.
(§1) The concentration of the test compounds in rat plasma after intragastric administration was determined by LC/MS/MS.

[2] = biological target: human IDO1 (Homo sapiens (Human), UniProt P14902); assay: Inhibition activity on human IDO1 (enzyme assay, absorbance at 480 nm); assay type: biochemical; conditions: purified recombinant human IDO1, 1 hour at 37° C.; read-out: IC50 for inhibiting the activity of human IDO1
human IDO1, sequence (P14902 whole entry): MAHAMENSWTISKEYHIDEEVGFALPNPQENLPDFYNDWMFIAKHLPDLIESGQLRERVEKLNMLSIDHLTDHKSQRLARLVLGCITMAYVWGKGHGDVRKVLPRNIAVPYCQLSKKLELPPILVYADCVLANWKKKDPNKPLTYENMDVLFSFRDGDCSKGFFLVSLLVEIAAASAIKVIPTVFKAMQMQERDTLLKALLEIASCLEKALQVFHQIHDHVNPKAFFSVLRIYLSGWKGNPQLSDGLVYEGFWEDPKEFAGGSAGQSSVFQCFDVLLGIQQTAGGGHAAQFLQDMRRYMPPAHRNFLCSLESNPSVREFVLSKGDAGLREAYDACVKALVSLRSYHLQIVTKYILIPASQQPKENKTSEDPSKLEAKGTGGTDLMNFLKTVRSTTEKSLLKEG
Description: Assay for Determining the Inhibition Activity of the Present Compounds on Human IDO1
Human IDO1 activity was tested in vitro by the following method.
This method is used to determine the inhibition effect of the compounds of the present invention on the activity of human IDO1.
The human IDO1 gene was transferred to Pet30a plasmid by gene cloning, and then transferred to competent Escherichia coli Rosseta. The IDO1 gene was scaled-up by culturing in liquid LB (Luria-Bertani) medium [which was prepared per liter according to “Molecular Cloning A Laboratory Manual” (J. Sambrook, D. W. Russell)]). The bacteria were collected and lysed by ultrasonic waves. The purified IDO1 was obtained by eluting from a column.
For testing, 24 μL of enzyme (IDO1) was diluted 100 times with 50 mM KPB to 2400 μL. The concentration of the enzyme solution was 2.6 ng/μL. A 96 well reaction plate (AXYGEN, PCR-96-FLT-C) (hereinafter referred to as the “reaction plate”) was added with the enzyme solution at 24 μL/well. The blank well was added with 24 μL of KPB [Preparation of KPB buffer (50 mM): 6.805 g of KH2PO4 was weighed using an analytical balance, and placed into a 1000 mL beaker, deionized water was added with a measuring cylinder to 900 ml, the pH was adjusted to 6.5 by 1M KOH, then the mixture was introduced into a 1 L measuring cylinder, and water was added to 1 L. It was stored at 4° C.]. Then, 1 μL of a compound or DMSO was added into the corresponding wells in the reaction plate. Preparation of solution A: 200 μL of 500 mM L-sodium ascorbate were added with 1050 μL of KPB, then the mixture was mixed uniformly for 3 seconds at the maximum speed in a turbine mixer. Solution B: 100 μL of 10 mM tryptophan were added with 100 μL of 100,000 unit/mL catalase, 5 μL of 10 mM methylene blue, and 1050 μL of KPB successively, then the mixture was mixed uniformly for 3 seconds at the maximum speed in a turbine mixer. Then, 1200 μL of solution A and 1200 μL of solution B were taken and mixed uniformly for 3 seconds at the maximum speed in a turbine mixer. The mixture was added to the reaction plate at 24 μL/well. The reaction plate was placed in a plate centrifuge and centrifuged for 15 seconds at the maximum speed, so that the reaction liquids converged to the bottom. The reaction mixture was mixed uniformly for 30 seconds on a shaker, and incubated for 1 hour at 37° C. in a constant temperature incubator. In the reaction plate, 30% (W/V) trichloroacetic acid was added at 10 μL/well, then the mixture was incubated for 15 minutes at 65° C. in an incubator. The reaction plate was centrifuged in a centrifuge for 5 minutes at 4700 RPM at room temperature. […] Then, 2% (W/V) 4-(dimethylamino)benzaldehyde/glacial acetic acid solution was added at 40 μL/well, and the mixture was mixed uniformly for 1 minute on a shaker at the maximum speed. After incubation for 2 minutes at room temperature, the absorbance at 480 nm was read on a Synergy HT (BIOTEK) reader.
The inhibition activity of the compounds of the present invention on human IDO1 was tested by the assay described above.

[3] = Pharmacokinetics assay in c57bl/6 mice after intragastric administration; assay type: in vivo; conditions: mouse, plasma, po, female c57bl/6 mice, 3 mg/kg
Description: c57bl/6 mice were used as test animals. […] The pharmacokinetic behavior of the compounds of the present invention was studied and evaluated in c57bl/6 mice.
Eighteen (18) female c57bl/6 mice, were purchased from SINO-BRITSH SIPPR/BK LAB. ANIMAL LTD., CO.
The appropriate amount of each test compound was weighed, and added with 0.5% CMC-Na to prepare a 1 mg/mL suspension by an ultrasonic method.
After an overnight fast, 18 female c57bl/6 mice were equally divided into 2 groups, 9 mice per group, and administered the test compounds intragastrically at an administration volume of 0.2 mL/kg.
The samples were stored in heparinized test tubes, and centrifuged for 10 minutes at 3,500 rpm to separate blood plasma. The plasma samples were stored at −20° C.
as §1

[4] = read-out: Apparent Distribution Volume Vz/F
[5] = read-out: Mean Residence Time MRT

Vd/F [3, 4]	AUC ([3]; read-out: Area Under Curve AUC)	CL/F ([3]; read-out: Clearance CLz/F)	half-life ([3]; read-out: Half-Life t½ (converted))	MRT [3, 5]	Cmax ([3]; read-out: Plasma Conc. Cmax)	SMILES	Vd/F [1, 4]	AUC ([1]; read-out: Area Under Curve AUC)	CL/F ([1]; read-out: Clearance CLz/F)	half-life ([1]; read-out: Half-Life T½ (converted))	MRT [1, 5]	Cmax ([1]; read-out: Plasma Conc. Cmax)	IC50 [2]
–	–	–	–	–	–	Fc1cccc(N2CCC(C3c4c(F)cccc4-c4cncn43)CC2)c1 (centres unmarked) [Example 3, 6-fluoro-5-(1-(3-fluorophenyl)piperidin-4-yl)-5H-imidazo[5,1-a]isoindole trifluoroacetate]	14.1 ± 1.72 L/kg	2620 ± 977 ng·h/mL	70.9 ± 26.4 mL/min/kg	2.54 ± 0.91 h	2.72 ± 0.36 h	1070 ± 524 ng/mL	71.7 nM
1.28 L/kg	4630 ng·h/mL	10.8 mL/min/kg	2.06 h	1.36 h	1670 ng/mL	OCCn1cc(-c2ccc(N3CCC([C@H]4c5c(F)cccc5-c5cncn54)CC3)cc2)cn1 [Example 41, (S)-2-(4-(4-(4-(6-fluoro-5H-imidazo[5,1-a]isoindol-5-yl)piperidin-1-yl)phenyl)-1H-pyrazol-1-yl)ethanol]	–	–	–	–	–	–	9.22 nM
